Literature values, collected in patent US6696575B2, “Biodegradable, electrically conducting polymer for tissue engineering applications” (Board of Regents, The University of Texas System, priority 2001, dated 2004).

Legend:
rat = conditions: oral administration
rat sciatic nerve = conditions: in vivo
mouse = conditions: oral administration

Row | Molecule | one-half lethal dose (LD50) (rat) | other results
1 | CCCCCC(=O)O [hexanoic acid] | 3000 mg/kg | –
2 | polypyrrole [PP] | – | tissue response on implantation (rat sciatic nerve): provoked little adverse tissue response
3 | CCO [ethanol] | 7000 mg/kg | –
4 | OCCCO [Propanediol, 1,3-propanediol] | – | one-half lethal dose (LD50) (mouse): 5000 mg/kg
